Test results as given in patent US10251889B2, “Substituted pyrazolo[1,5-a]pyrimidine compounds as Trk kinase inhibitors” (Array BioPharma, Inc., priority 2009, dated 2019).

Target: Jak2 (human Jak2 kinase domain, amino acids 808-1132) (Homo sapiens (Human), UniProt O60674)
Test: Jak2 inhibition assay (Omnia kinase assay)
Type: biochemical
Conditions: read-out: Jak2 Enzyme (% inhibition at 1000 nM), Table 1; 1000 nM test compound

Chain of Jak2 (human Jak2 kinase domain, amino acids 808-1132) (O60674 808-1132): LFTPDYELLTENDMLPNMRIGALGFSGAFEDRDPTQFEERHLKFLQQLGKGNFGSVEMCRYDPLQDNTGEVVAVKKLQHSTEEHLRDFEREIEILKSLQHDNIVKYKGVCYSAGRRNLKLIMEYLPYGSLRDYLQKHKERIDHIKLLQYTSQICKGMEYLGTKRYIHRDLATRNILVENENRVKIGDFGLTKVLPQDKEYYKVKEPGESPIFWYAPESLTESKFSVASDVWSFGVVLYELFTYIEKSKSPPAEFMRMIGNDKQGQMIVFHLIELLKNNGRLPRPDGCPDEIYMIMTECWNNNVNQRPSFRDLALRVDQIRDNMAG

Row | Structure (SMILES) | inhibition at 1 µM
1 | COc1ncc(F)cc1[C@H]1CCCN1c1ccn2ncc(C(=O)NC[C@@H](O)CO)c2n1 [Example 150, N-((R)-2,3-dihydroxypropyl)-5-((R)-2-(5-fluoro-2-methoxypyridin-3-yl)pyrrolidin-1-yl)pyrazolo[1,5-a]pyrimidine-3-carboxamide] | 8.9%
2 | COc1ncc(F)cc1[C@H]1CCCN1c1ccn2ncc(C(=O)NCCCCO)c2n1 [Example 151, (R)-5-(2-(5-fluoro-2-methoxypyridin-3-yl)pyrrolidin-1-yl)-N-(4-hydroxybutyl)pyrazolo[1,5-a]pyrimidine-3-carboxamide] | 35.6%
3 | COc1ncc(F)cc1[C@H]1CCCN1c1ccn2ncc(C(=O)NOCCOC(C)(C)C)c2n1 [Example 152, (R)-N-(2-tert-butoxyethoxy)-5-(2-(5-fluoro-2-methoxypyridin-3-yl)pyrrolidin-1-yl)pyrazolo[1,5-a]pyrimidine-3-carboxamide] | 7.6%
4 | CNC(=O)c1cnn2ccc(N3CCC[C@@H]3c3cc(F)cnc3OC)nc12 [Example 153, (R)-5-(2-(5-fluoro-2-methoxypyridin-3-yl)pyrrolidin-1-yl)-N-methylpyrazolo[1,5-a]pyrimidine-3-carboxamide] | 33.8%
5 | COc1ncc(F)cc1[C@H]1CCCN1c1ccn2ncc(C(=O)N[C@H]3CC[C@H](O)C3)c2n1 [Example 154, 5-((R)-2-(5-fluoro-2-methoxypyridin-3-yl)pyrrolidin-1-yl)-N-((1S,3S)-3-hydroxycyclopentyl)pyrazolo[1,5-a]pyrimidine-3-carboxamide] | 64.4%
6 | COc1ncc(F)cc1[C@H]1CCCN1c1ccn2ncc(C(=O)NCCO)c2n1 [Example 155, (R)-5-(2-(5-fluoro-2-methoxypyridin-3-yl)pyrrolidin-1-yl)-N-(2-hydroxyethyl)pyrazolo[1,5-a]pyrimidine-3-carboxamide] | 33.3%
7 | COc1ncc(F)cc1[C@H]1CCCN1c1ccn2ncc(C(=O)NC[C@H](C)O)c2n1 [Example 156, 5-((R)-2-(5-fluoro-2-methoxypyridin-3-y1)pyrrolidin-1-yl)-N-((S)-2-hydroxypropyl)pyrazolo[1,5-a]pyrimidine-3-carboxamide] | 16.1%
8 | COc1ncc(F)cc1[C@H]1CCCN1c1ccn2ncc(C(=O)NC[C@@H](C)O)c2n1 [Example 157, 5-((R)-2-(5-fluoro-2-methoxypyridin-3-yl)pyrrolidin-1-yl)-N-((R)-2-hydroxypropyl)pyrazolo[1,5-a]pyrimidine-3-carboxamide] | 9.6%
9 | COc1ncc(F)cc1[C@H]1CCCN1c1ccn2ncc(C(=O)NCC(C)(C)O)c2n1 [Example 158, (R)-5-(2-(5-fluoro-2-methoxypyridin-3-yl)pyrrolidin-1-yl)-N-(2-hydroxy-2-methylpropyl)pyrazolo[1,5-a]pyrimidine-3-carboxamide] | 14.4%
10 | COc1ncc(F)cc1[C@H]1CCCN1c1ccn2ncc(C(=O)NC3CCN(CCO)CC3)c2n1 [Example 159, (R)-5-(2-(5-fluoro-2-methoxypyridin-3-yl)pyrrolidin-1-yl)-N-(1-(2-hydroxyethyl)piperidin-4-yl)pyrazolo[1,5-a]pyrimidine-3-carboxamide] | 28.9%
11 | COc1ncc(F)cc1[C@H]1CCCN1c1ccn2ncc(C(=O)NC(CO)CO)c2n1 [Example 160, (R)-N-(1,3-dihydroxypropan-2-yl)-5-(2-(5-fluoro-2-methoxypyridin-3-yl)pyrrolidin-1-y1)pyrazolo[1,5-a]pyrimidine-3-carboxamide] | 8.5%
12 | COc1ncc(F)cc1[C@H]1CCCN1c1ccn2ncc(C(=O)Nc3ccc(=O)[nH]c3)c2n1 [Example 161, (R)-5-(2-(5-fluoro-2-methoxypyridin-3-yl)pyrrolidin-1-yl)-N-(6-oxo-1,6-dihydropyridin-3-yl)pyrazolo[1,5-a]pyrimidine-3-carboxamide] | 27.4%
13 | COc1ncc(F)cc1[C@H]1CCCN1c1ccn2ncc(C(=O)NC3CCN(S(C)(=O)=O)CC3)c2n1 [Example 162, (R)-5-(2-(5-fluoro-2-methoxypyridin-3-yl)pyrrolidin-1-yl)-N-(1-(methylsulfonyl)piperidin-4-yl)pyrazolo[1,5-a]pyrimidine-3-carboxamide] | 66.2%
14 | O=C(NCCO)c1cnn2ccc(N3CCCC3c3cc(F)ccc3F)nc12 (centres unmarked) [Example 165, 5-(2-(2,5-difluorophenyl)pyrrolidin-1-yl)-N-(2-hydroxyethyl)pyrazolo[1,5-a]pyrimidine-3-carboxamide] | 26.8%
15 | C[C@H](O)CNC(=O)c1cnn2ccc(N3CCC[C@@H]3c3cc(F)ccc3F)nc12 [Example 166, 5-((R)-2-(2,5-difluorophenyl)pyrrolidin-1-yl)-N-(2-hydroxypropyl)pyrazolo[1,5-a]pyrimidine-3-carboxamide] | 13.8%
16 | O=C(N[C@H]1CC[C@H](O)C1)c1cnn2ccc(N3CCC[C@@H]3c3cc(F)ccc3F)nc12 [Example 169, 5-((R)-2-(2,5-difluorophenyl)pyrrolidin-1-yl)-N-((1S,3S)-3-hydroxycyclopentyl)pyrazolo[1,5-a]pyrimidine-3-carboxamide] | 51.9%
17 | O=C(NCCN1CCC(O)CC1)c1cnn2ccc(N3CCC[C@@H]3c3cc(F)ccc3F)nc12 [Example 170, 5-((R)-2-(2,5-difluorophenyl)pyrrolidin-1-yl)-N-(2-(4-hydroxypiperidin-1-yl)ethyl)pyrazolo[1,5-a]pyrimidine-3-carboxamide] | 0.7%

Further lines, results first:

Row | inhibition at 1 µM | Structure (SMILES)
18 | 7.8% | CN1CCN(CCNC(=O)c2cnn3ccc(N4CCC[C@@H]4c4cc(F)ccc4F)nc23)CC1 [Example 171, 5-((R)-2-(2,5-difluorophenyl)pyrrolidin-1-yl)-N-(2-(4-methylpiperazin-1-yl)ethyl)pyrazolo[1,5-a]pyrimidine-3-carboxamide]
19 | 11% | COCCNC(=O)c1cnn2ccc(N3CCC[C@@H]3c3cc(F)ccc3F)nc12 [Example 172, 5-((R)-2-(2,5-difluorophenyl)pyrrolidin-1-yl)-N-(2-methoxyethyl)pyrazolo[1,5-a]pyrimidine-3-carboxamide]
20 | 6.4% | C[C@@H](O)[C@H](CO)NC(=O)c1cnn2ccc(N3CCC[C@@H]3c3cc(F)ccc3F)nc12 [Example 174, 5-((R)-2-(2,5-difluorophenyl)pyrrolidin-1-yl)-N-((2S,3R)-1,3-dihydroxybutan-2-yl)pyrazolo[1,5-a]pyrimidine-3-carboxamide]
21 | 3.8% | C[C@H](O)[C@H](CO)NC(=O)c1cnn2ccc(N3CCC[C@@H]3c3cc(F)ccc3F)nc12 [Example 175, 5-((R)-2-(2,5-difluorophenyl)pyrrolidin-1-yl)-N-((2S,3S)-1,3-dihydroxybutan-2-yl)pyrazolo[1,5-a]pyrimidine-3-carboxamide]
22 | 6.3% | C[C@H](O)[C@@H](CO)NC(=O)c1cnn2ccc(N3CCC[C@@H]3c3cc(F)ccc3F)nc12 [Example 176, 5-((R)-2-(2,5-difluorophenyl)pyrrolidin-1-yl)-N-((2R,3S)-1,3-dihydroxybutan-2-yl)pyrazolo[1,5-a]pyrimidine-3-carboxamide]
23 | 26.2% | C[C@@H](CO)NC(=O)c1cnn2ccc(N3CCC[C@@H]3c3cc(F)ccc3F)nc12 [Example 177, 5-((R)-2-(2,5-difluorophenyl)pyrrolidin-1-yl)-N-((S)-1-hydroxypropan-2-yl)pyrazolo[1,5-a]pyrimidine-3-carboxamide]
24 | 16.9% | CC[C@@H](CO)NC(=O)c1cnn2ccc(N3CCC[C@@H]3c3cc(F)ccc3F)nc12 [Example 178, 5-((R)-2-(2,5-difluorophenyl)pyrrolidin-1-yl)-N-((S)-1-hydroxybutan-2-yl)pyrazolo[1,5-a]pyrimidine-3-carboxamide]
25 | -0.2% | CC(C)[C@@H](CO)NC(=O)c1cnn2ccc(N3CCC[C@@H]3c3cc(F)ccc3F)nc12 [Example 179, 5-((R)-2-(2,5-difluorophenyl)pyrrolidin-1-yl)-N-((S)-1-hydroxy-3-methylbutan-2-yl)pyrazolo[1,5-a]pyrimidine-3-carboxamide]
26 | -0.8% | CC(C)(C)[C@@H](CO)NC(=O)c1cnn2ccc(N3CCC[C@@H]3c3cc(F)ccc3F)nc12 [Example 180, 5-((R)-2-(2,5-difluorophenyl)pyrrolidin-1-yl)-N-((S)-1-hydroxy-3,3-dimethylbutan-2-yl)pyrazolo[1,5-a]pyrimidine-3-carboxamide]
27 | -0.8% | Cc1ncc(F)cc1[C@H]1CCCN1c1ccn2ncc(C(=O)NC(C)(C)C)c2n1 [Example 183, (R)-N-tert-butyl-5-(2-(5-fluoro-2-methylpyridin-3-yl)pyrrolidin-1-yl)pyrazolo[1,5-a]pyrimidine-3-carboxamide]
28 | 11.8% | Cc1ncc(F)cc1[C@H]1CCCN1c1ccn2ncc(C(=O)NC(C)C)c2n1 [Example 184, (R)-5-(2-(5-fluoro-2-methylpyridin-3-yl)pyrrolidin-1-yl)-N-isopropylpyrazolo[1,5-a]pyrimidine-3-carboxamide]
29 | 10.5% | CNC(=O)c1cnn2ccc(N3CCC[C@@H]3c3cc(F)cnc3C)nc12 [Example 186, (R)-5-(2-(5-fluoro-2-methylpyridin-3-yl)pyrrolidin-1-yl)-N-methylpyrazolo[1,5-a]pyrimidine-3-carboxamide]
30 | 9.3% | Cc1ncc(F)cc1[C@H]1CCCN1c1ccn2ncc(C(=O)NCCO)c2n1 [Example 188, (R)-5-(2-(5-fluoro-2-methylpyridin-3-yl)pyrrolidin-1-yl)-N-(2-hydroxyethyl)pyrazolo[1,5-a]pyrimidine-3-carboxamide]
31 | 4.6% | Cc1ncc(F)cc1[C@H]1CCCN1c1ccn2ncc(C(=O)NC[C@@H](C)O)c2n1 [Example 189, (R)-5-(2-(5-fluoro-2-methylpyridin-3-yl)pyrrolidin-1-yl)-N-((R)-2-hydroxypropyl)pyrazolo[1,5-a]pyrimidine-3-carboxamide]
32 | 4.8% | COCCNC(=O)c1cnn2ccc(N3CCC[C@@H]3c3cc(F)cnc3C)nc12 [Example 191, (R)-5-(2-(5-fluoro-2-methylpyridin-3-yl)pyrrolidin-1-yl)-N-(2-methoxyethyl)pyrazolo[1,5-a]pyrimidine-3-carboxamide]
